Consider 4 compounds from ChEMBL document CHEMBL1135412, “Synthesis and in vitro evaluation of quaternary ammonium derivatives of chlorambucil and melphalan, anticancer drugs designed for the chemotherapy of chondrosarcoma” (J Med Chem, 2002).

Broadly, the IC50 is the midpoint of a concentration-inhibition curve. Read a high IC50 as a need for much substance. Usually CC50 stands for the concentration that lowers cell viability or growth by half. The logD is lipophilicity at a set pH, counting ionised and neutral species. The low end stands for lower lipophilicity, the high end for higher lipophilicity.

The subject of data set [1] is M4Beu cell line. Description: Comparative cellular uptake study performed on M4 Beu (melanoma cell line). The class given is functional, Homo sapiens.
Data set [2] has as its system M4Beu cell line. Description: In vitro cytotoxicity activity against M4 Beu, by colony forming assay. It counts as functional, cell-based. As to conditions: Homo sapiens.
Data set [3] can be described thus: In vitro cytotoxicity in chondrosarcoma cell line (H-EMC-SS) by Hoechst 33342 DNA Fluorometric assay. The class given is functional. As to conditions: Homo sapiens.
A short description of data set [4]: Glutathione-s-transferase activity of the compound, expressed as percentage of control. It counts as functional.
Data set [5] is described as follows: Partition coefficient (logD) (octanol/phosphate buffer). It counts as physicochemical.
The nature of data set [6]: In vitro cytotoxicity in chondrosarcoma cell line (H-EMC-SS) by Alamar blue assay. The class given is functional. The following applies: Homo sapiens. A general note: Alamar Blue is a resazurin reagent that responds to reducing activity.
For data set [7], the system named is B16. Description: In vitro cytotoxicity activity against B16, by colony forming assay. It counts as functional, cell-based. The following applies: Mus musculus.
Data set [8] in a line: In vitro cytotoxicity activity against M4 Dau, by colony forming assay. It counts as functional.
Data set [9] in a line: Alkylating activity of compound was determined by the NBP assay at 570 nm. It counts as functional.
Data set [10] has as its system MCF7S. Description: In vitro cytotoxicity activity against MCF7, by colony forming assay. It counts as functional, cell-based. The following applies: Homo sapiens.
Data set [11] in a line: Comparative cellular uptake study performed on H-EMC-SS (chondrosarcoma cell line). It counts as functional, Homo sapiens.
In data set [12] the test system is B16. Description: In vitro cytotoxicity activity against B16 cells, by colony forming assay. It counts as functional, cell-based. As to conditions: Mus musculus.
In data set [13] the test system is M4Beu cell line. Description: In vitro cytotoxic activity against M4 Beu cells, by colony forming assay. It counts as functional, cell-based. The following applies: Homo sapiens.
Data set [14] relates to MCF7S. Description: In vitro cytotoxic activity against MCF7, by colony forming assay. The class given is functional, cell-based. As to conditions: Homo sapiens.
A short description of data set [15]: In vitro cytotoxic activity against M4 Dau, by colony forming assay. It counts as functional.
The test system of data set [16] is B16. Description: In vitro cytotoxic activity against B16, by colony forming assay. As to conditions: Mus musculus. It counts as functional, cell-based.
The subject of data set [17] is MCF7S. Description: In vitro cytotoxicity activity against MCF-7. The following applies: Homo sapiens. It counts as functional, cell-based.
A short description of data set [18]: In vitro cytotoxicity activity against M4 Dau by colony forming assay. It counts as functional.

On to `C[N+](C)(C)CCCNC(=O)C(N)Cc1ccc(N(CCCl)CCCl)cc1.[Cl-]` (centres undefined), for which the Cellular uptake in data set [1] was determined as 6.82 pmol/µL; in data set [11], 1.54 pmol/µL. Moreover, the IC50 in data set [2] came out at 14.4 µM; in data set [7] it was 19.5 µM; in data set [8], 3.3 µM; in data set [10], 0.9 µM. The CC50 came to 1.2 µM in data set [3] and 1.8 µM in data set [6]. In data set [4], this compound gave a Glutathione-S-transferase activity (% of control) of 79%. The logD in [5] was -1.12. In data set [9], the Alkylating activity is 15.7 10e3·k.

For the compound `O=C(O)CCCc1ccc(N(CCCl)CCCl)cc1` [CHLORAMBUCIL], the IC50 in data set [12] amounted to 5.1 µM; in [13], 5.1 µM; in data set [14], 1.7 µM; in [8], 1.5 µM. Further, the Cellular uptake was 18.4 pmol/µL in [1] and 2.73 pmol/µL in data set [11]. Besides, the values for the CC50 in [3] and in data set [6] were 2.7 µM and 3.5 µM, respectively. In addition, the Glutathione-S-transferase activity (% of control) in data set [4] came to 60.4%. This compound showed a logD in data set [5] (octanol/water) of 0.75. Besides, the Alkylating activity in data set [9] is 30.2 10e3·k.

In the case of `C[N+](C)(C)CCCNC(=O)CCCc1ccc(N(CCCl)CCCl)cc1.[I-]`, the IC50 was 5.1 µM in [13], 1.3 µM in data set [15], 1.2 µM in [14] and 8.6 µM in data set [16]. Besides, the Cellular uptake was found to be 16.7 pmol/µL in data set [1] and 2.97 pmol/µL in data set [11]. Further, the 50% cytotoxic concentration (CC50) was 0.6 µM in data set [3] and 0.7 µM in data set [6]. Also, the Glutathione-S-transferase activity (% of control) in [4] worked out at 55.4%. Further, the logD in data set [5] came out at 0.32. Besides, the Alkylating activity in data set [9] was 40.4 10e3·k.

With `N[C@@H](Cc1ccc(N(CCCl)CCCl)cc1)C(=O)O` [MELPHALAN], the figures for the Cellular uptake in [1] and in data set [11] were 21.9 pmol/µL and 2.88 pmol/µL, respectively. Further, the IC50 was 1.2 µM in [2], 0.3 µM in [17], 0.5 µM in data set [18] and 2.2 µM in [7]. Besides, the CC50 came to 0.9 µM in data set [3] and 1.6 µM in data set [6]. In data set [4], the Glutathione-S-transferase activity (% of control) worked out at 85.3%. Besides, the logD in [5] stood at 0.11. For the same compound, the Alkylating activity in [9] is 10.3 10e3·k.
